Tests used:
Assay type in all cases: in vivo
[1] = system: Alopecurus myosuroides (ALOMY); assay: Glasshouse adjuvant test with pinoxaden (Example 8); conditions: pinoxaden 7.5 or 15 g/ha, adjuvant 0.2% v/v or none, 200 l/ha; growth stage 13; mean over two rates, three replicates, 14 and 21 days
Description: (§1) The adjuvant shown in example 1 was tested in a glasshouse against four weed species in combination with the herbicide pinoxaden. A 20% w/w stock emulsion of compound 1 was prepared additionally containing 2% w/w Gohsenol® GL03 and 2% w/w Pluronic® PE10500 as surfactants. Using this, an agrochemical composition was prepared containing 0.2% v/v of the adjuvant in a track sprayer and was applied at a volume of 200 liters per hectare. Pinoxaden was applied at either 7.5 or 15 grams of pesticide per hectare on each of the weed species. The weed species and their growth stage at spraying were Alopecurus myosuroides (ALOMY; growth stage 13), Avena fatua (AVEFA; growth stage 12); Lolium perenne (LOLPE; growth stage 13), Setaria viridis (SETVI; growth stage 14).
(§2) Each spray test was replicated three times. The efficacy of the herbicide was assessed visually and expressed as a percentage of the leaf area killed. Samples were assessed at time periods of 14 and 21 days following application. The results shown in Table 8 are mean averages over the two rates of pinoxaden, three replicates and the two assessment timings, and are compared to the efficacy of pinoxaden in the absence of adjuvant.

Avena fatua (AVEFA) = assay: as above; conditions: pinoxaden 7.5 or 15 g/ha, adjuvant 0.2% v/v or none, 200 l/ha; growth stage 12; mean over two rates, three replicates, 14 and 21 days
Description: as §1, §2

Lolium perenne (LOLPE) = assay: as above; conditions: pinoxaden 7.5 or 15 g/ha, adjuvant 0.2% v/v or none, 200 l/ha; growth stage 13; mean over two rates, three replicates, 14 and 21 days
Description: as §1, §2

Setaria viridis (SETVI) [2] = assay: as above; conditions: pinoxaden 7.5 or 15 g/ha, adjuvant 0.2% v/v or none, 200 l/ha; growth stage 14; mean over two rates, three replicates, 14 and 21 days
Description: as §1, §2

[3] = system: four weed species (ALOMY, AVEFA, LOLPE, SETVI); assay: Glasshouse adjuvant test with pinoxaden (Example 8), mean across species; conditions: pinoxaden 7.5 or 15 g/ha, adjuvant 0.2% v/v or none
Description: as §1, §2

[4] = system: Abutilon theophrasti (ABUTH); assay: Glasshouse adjuvant test with fomesafen (Example 3); conditions: fomesafen 60 or 120 g/ha, adjuvant 0.2% v/v or none, 200 l/ha; leaf area killed; mean over two rates, six replicates, 7 and 14 days
Description: (§3) Compound No. 2 was tested in a glasshouse against four weed species in combination with the herbicide fomesafen. An agrochemical composition was prepared containing 0.2% v/v of the adjuvant in a track sprayer and was applied at a volume of 200 liters per hectare. Fomesafen was applied at either 60 or 120 grams of pesticide per hectare on weeds which had been grown to the 1.3 or 1.4 leaf stage. The weed species were Chenopodium album (CHEAL), Abutilon theophrasti (ABUTH), Setaria viridis (SETVI), and Xanthium strumarium (XANST).
(§4) Each spray test was replicated six times. The efficacy of the herbicide was assessed visually and expressed as a percentage of the leaf area killed. Samples were assessed at time periods of 7 and 14 days following application. The results shown in Table 3 below are mean averages over the two rates of fomesafen, six replicates and the two assessment timings, and are compared to the efficacy of fomesafen in the absence of adjuvant.

[5] = system: Chenopodium album (CHEAL); assay: as above; conditions: fomesafen 60 or 120 g/ha, adjuvant 0.2% v/v or none, 200 l/ha; leaf area killed; mean over two rates, six replicates, 7 and 14 days
Description: as §3, §4

Setaria viridis (SETVI) [6] = assay: as above; conditions: fomesafen 60 or 120 g/ha, adjuvant 0.2% v/v or none, 200 l/ha; leaf area killed; mean over two rates, six replicates, 7 and 14 days
Description: as §3, §4

[7] = system: Xanthium strumarium (XANST); assay: as above; conditions: fomesafen 60 or 120 g/ha, adjuvant 0.2% v/v or none, 200 l/ha; leaf area killed; mean over two rates, six replicates, 7 and 14 days
Description: as §3, §4

[8] = system: four weed species (ABUTH, CHEAL, SETVI, XANST); assay: Glasshouse adjuvant test with fomesafen (Example 3), mean across species; conditions: fomesafen 60 or 120 g/ha, adjuvant 0.2% v/v or none
Description: as §3, §4

[9] = system: Abutilon theophrasti (ABUTH); assay: Glasshouse adjuvant test with fomesafen (Example 5); conditions: fomesafen 60 or 120 g/ha, adjuvant 0.2% v/v or none, 200 l/ha; growth stage 12; mean over two rates, three replicates, 7, 14 and 21 days
Description: (§5) Compound 1 (N, N-diethyl-3-methylbenzamide) was tested in a glasshouse against four weed species using the herbicide fomesafen. An agrochemical composition was prepared containing 0.2% v/v of the adjuvant in a track sprayer and was applied at a volume of 200 liters per hectare. Fomesafen was applied at either 60 or 120 grams of pesticide per hectare on each of the weed species. The weed species and their growth stage at spraying were Chenopodium album (CHEAL; growth stage 13/14), Abutilon theophrasti (ABUTH; growth stage 12), Setaria viridis (SETVI; growth stage 13), and Xanthium strumarium (XANST; growth stage 12).
(§6) Each spray test was replicated three times. The efficacy of the herbicide was assessed visually and expressed as a percentage of the leaf area killed. Samples were assessed at time periods of 7, 14 and 21 days following application. The results shown in Table 5 below are mean averages over the two rates of fomesafen, three replicates and the three assessment timings, and are compared to the efficacy of fomesafen in the absence of adjuvant.

[10] = system: Chenopodium album (CHEAL); assay: as above; conditions: fomesafen 60 or 120 g/ha, adjuvant 0.2% v/v or none, 200 l/ha; growth stage 13/14; mean over two rates, three replicates, 7, 14 and 21 days
Description: as §5, §6

Setaria viridis (SETVI) [11] = assay: as above; conditions: fomesafen 60 or 120 g/ha, adjuvant 0.2% v/v or none, 200 l/ha; growth stage 13; mean over two rates, three replicates, 7, 14 and 21 days
Description: as §5, §6

[12] = system: Xanthium strumarium (XANST); assay: as above; conditions: fomesafen 60 or 120 g/ha, adjuvant 0.2% v/v or none, 200 l/ha; growth stage 12; mean over two rates, three replicates, 7, 14 and 21 days
Description: as §5, §6

[13] = system: four weed species (CHEAL, ABUTH, SETVI, XANST); assay: Glasshouse adjuvant test with fomesafen (Example 5), mean across species; conditions: fomesafen 60 or 120 g/ha, adjuvant 0.2% v/v or none
Description: as §5, §6

[14] = system: Amaranthus tuberculatus (AMATE); assay: Glasshouse adjuvant test with mesotrione (Example 6); conditions: mesotrione 45 or 90 g/ha, adjuvant 0.2% v/v or none, 200 l/ha; growth stage 13/14; mean over two rates, three replicates, 7, 14 and 21 days
Description: (§7) Compound 1 was tested in a glasshouse against four weed species using the herbicide mesotrione. A 20% w/w stock emulsion of compound 1 was prepared additionally containing 2% w/w Gohsenol® GL03 and 2% w/w Pluronic® PE10500 as surfactants. Using this, an agrochemical composition was prepared containing 0.2% v/v of the adjuvant in a track sprayer and was applied at a volume of 200 liters per hectare. Mesotrione was applied at either 45 or 90 grams of pesticide per hectare on each of the weed species. The weed species and their growth stage at spraying were Amaranthus tuberculatus (AMATE; growth stage 13/14), Brachiaria decumbens (BRADE; growth stage 13/14), Digitaria sanguinalis (DIGSA; growth stage 14), and Polygonum convolvulus (POLCO; growth stage 11/11.5).
as §6, with “Each” for “Each spray”, “6” for “5”, “mesotrione,” for “fomesafen,”, “mesotrione” for “fomesafen”, “in” for “in the”

[15] = system: Brachiaria decumbens (BRADE); assay: as above; conditions: mesotrione 45 or 90 g/ha, adjuvant 0.2% v/v or none, 200 l/ha; growth stage 13/14; mean over two rates, three replicates, 7, 14 and 21 days
Description: as §7
as §6, with “Each” for “Each spray”, “6” for “5”, “mesotrione,” for “fomesafen,”, “mesotrione” for “fomesafen”, “in” for “in the”

[16] = system: Digitaria sanguinalis (DIGSA); assay: as above; conditions: mesotrione 45 or 90 g/ha, adjuvant 0.2% v/v or none, 200 l/ha; growth stage 14; mean over two rates, three replicates, 7, 14 and 21 days
Description: as §7
as §6, with “Each” for “Each spray”, “6” for “5”, “mesotrione,” for “fomesafen,”, “mesotrione” for “fomesafen”, “in” for “in the”

[17] = system: Polygonum convolvulus (POLCO); assay: as above; conditions: mesotrione 45 or 90 g/ha, adjuvant 0.2% v/v or none, 200 l/ha; growth stage 11/11.5; mean over two rates, three replicates, 7, 14 and 21 days
Description: as §7
as §6, with “Each” for “Each spray”, “6” for “5”, “mesotrione,” for “fomesafen,”, “mesotrione” for “fomesafen”, “in” for “in the”

[18] = system: four weed species (AMATE, BRADE, DIGSA, POLCO); assay: Glasshouse adjuvant test with mesotrione (Example 6), mean across species; conditions: mesotrione 45 or 90 g/ha, adjuvant 0.2% v/v or none
[19] = system: Abutilon theophrasti (ABUTH); assay: Glasshouse adjuvant test with nicosulfuron (Example 7); conditions: nicosulfuron 30 or 60 g/ha, adjuvant 0.2% v/v or none, 200 l/ha; growth stage 13; mean over two rates, three replicates, 14 and 21 days
Description: (§8) Compound 1 was tested in a glasshouse against four weed species using the herbicide nicosulfuron. A 20% w/w stock emulsion of compound 1 was prepared additionally containing 2% w/w Gohsenol® GL03 and 2% w/w Pluronic® PE10500 as surfactants. Using this, an agrochemical composition was prepared containing 0.2% v/v of the adjuvant in a track sprayer and was applied at a volume of 200 liters per hectare. Nicosulfuron was applied at either 30 or 60 grams of pesticide per hectare on each of the weed species. The weed species and their growth stage at spraying were Abutilon theophrasti (ABUTH; growth stage 13), Chenopodium album (CHEAL; growth stage 14), Digitaria sanguinalis (DIGSA; growth stage 13), and Setaria viridis (SETVI; growth stage 13).
(§9) Each spray test replicated three times. The efficacy of the herbicide was assessed visually and expressed as a percentage of the leaf area killed. Samples were assessed at time periods of 14 and 21 days following application. The results shown in Table 7 below are mean averages over the two rates of nicosulfuron, three replicates and the two assessment timings, and are compared to the efficacy of nicosulfuron in the absence of an adjuvant.

[20] = system: Chenopodium album (CHEAL); assay: as above; conditions: nicosulfuron 30 or 60 g/ha, adjuvant 0.2% v/v or none, 200 l/ha; growth stage 14; mean over two rates, three replicates, 14 and 21 days
Description: as §8, §9

[21] = system: Digitaria sanguinalis (DIGSA); assay: as above; conditions: nicosulfuron 30 or 60 g/ha, adjuvant 0.2% v/v or none, 200 l/ha; growth stage 13; mean over two rates, three replicates, 14 and 21 days
Description: as §8, §9

Setaria viridis (SETVI) [22] = assay: as above; conditions: nicosulfuron 30 or 60 g/ha, adjuvant 0.2% v/v or none, 200 l/ha; growth stage 13; mean over two rates, three replicates, 14 and 21 days
Description: as §8, §9

[23] = system: four weed species (ABUTH, CHEAL, DIGSA, SETVI); assay: Glasshouse adjuvant test with nicosulfuron (Example 7), mean across species; conditions: nicosulfuron 30 or 60 g/ha, adjuvant 0.2% v/v or none
Description: as §8, §9

For `CCc1cc(C)cc(CC)c1-c1c(OC(=O)C(C)(C)C)n2n(c1=O)CCOCC2` [Pinoxaden, pinoxaden, reference compound], the “Mean percentage kill ALOMY” value [1] was 21.2%, the “Mean percentage kill AVEFA” value (Avena fatua (AVEFA)) was 20.8% and the “Mean percentage kill LOLPE” value (Lolium perenne (LOLPE)) was 12.5%. The “Mean percentage kill SETVI” value (Setaria viridis (SETVI) [2]) was 15% and the “Mean percentage kill, Mean across species” value [3] was 17.4%.
With `CS(=O)(=O)NC(=O)c1cc(Oc2ccc(C(F)(F)F)cc2Cl)ccc1[N+](=O)[O-]` [fomesafen, reference compound] the “Mean percentage kill ABUTH” value [4] was 60.8%, the “Mean percentage kill CHEAL” value [5] was 43.3% and the “Mean percentage kill SETVI” value (Setaria viridis (SETVI) [6]) was 38.2%. The “Mean percentage kill XANST” value [7] was 45.8%, the “Mean percentage kill, Mean across species” value [8] was 47.0% and the “Mean percentage kill ABUTH” value [9] was 20%. The “Mean percentage kill CHEAL” value [10] was 77.5%, the “Mean percentage kill SETVI” value (Setaria viridis (SETVI) [11]) was 10.6% and the “Mean percentage kill XANST” value [12] was 42.8%. For the same compound, the “Mean percentage kill, Mean across species” value [13] was 37.7%.
`CS(=O)(=O)c1ccc(C(=O)C2C(=O)CCCC2=O)c([N+](=O)[O-])c1` [mesotrione, reference compound] was tested, and the “Mean percentage kill AMATE” value [14] was 65.6%, the “Mean percentage kill BRADE” value [15] was 26.7% and the “Mean percentage kill DIGSA” value [16] was 23%. The “Mean percentage kill POLCO” value [17] was 73.3% and the “Mean percentage kill, Mean across species” value [18] was 47.1%.
`COc1cc(OC)nc(NC(=O)NS(=O)(=O)c2ncccc2C(=O)N(C)C)n1` [nicosulfuron, reference compound] was tested, and the “Mean percentage kill ABUTH” value [19] was 69.2%, the “Mean percentage kill CHEAL” value [20] was 50.8% and the “Mean percentage kill DIGSA” value [21] was 87.9%. The “Mean percentage kill SETVI” value (Setaria viridis (SETVI) [22]) was 92% and the “Mean percentage kill, Mean across species” value [23] was 75%.

From patent US10051857B2, “Formulation component” (SYNGENTA LIMITED, priority 2011, dated 2018)
